Reference: PMC4400266 (ACS chemical neuroscience, 2015)

Legend:
human OX1 receptors = biological target: T1, human OX1 receptors (Homo sapiens, UniProt O43613); assay: Calcium mobilization Ke assay; type: cell-based; settings: for OX2/OX1: ratio of Ke OX2 to Ke OX1 (table column)
T1 sequence (O43613 1-425): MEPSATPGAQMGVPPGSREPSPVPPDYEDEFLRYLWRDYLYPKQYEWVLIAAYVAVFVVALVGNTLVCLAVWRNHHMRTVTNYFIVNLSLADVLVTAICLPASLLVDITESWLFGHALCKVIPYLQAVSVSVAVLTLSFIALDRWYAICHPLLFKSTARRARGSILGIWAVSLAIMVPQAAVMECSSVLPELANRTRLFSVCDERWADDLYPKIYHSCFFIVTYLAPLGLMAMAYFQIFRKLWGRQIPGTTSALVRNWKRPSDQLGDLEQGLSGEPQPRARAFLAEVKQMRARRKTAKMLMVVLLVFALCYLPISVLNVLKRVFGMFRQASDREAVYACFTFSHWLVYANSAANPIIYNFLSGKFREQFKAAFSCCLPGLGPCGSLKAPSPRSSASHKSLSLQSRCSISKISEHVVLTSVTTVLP

human OX2 receptors = biological target: T2, human OX2 receptors (Homo sapiens, UniProt O43614); assay: Calcium mobilization Ke assay; type: cell-based
T2 sequence (O43614 1-444): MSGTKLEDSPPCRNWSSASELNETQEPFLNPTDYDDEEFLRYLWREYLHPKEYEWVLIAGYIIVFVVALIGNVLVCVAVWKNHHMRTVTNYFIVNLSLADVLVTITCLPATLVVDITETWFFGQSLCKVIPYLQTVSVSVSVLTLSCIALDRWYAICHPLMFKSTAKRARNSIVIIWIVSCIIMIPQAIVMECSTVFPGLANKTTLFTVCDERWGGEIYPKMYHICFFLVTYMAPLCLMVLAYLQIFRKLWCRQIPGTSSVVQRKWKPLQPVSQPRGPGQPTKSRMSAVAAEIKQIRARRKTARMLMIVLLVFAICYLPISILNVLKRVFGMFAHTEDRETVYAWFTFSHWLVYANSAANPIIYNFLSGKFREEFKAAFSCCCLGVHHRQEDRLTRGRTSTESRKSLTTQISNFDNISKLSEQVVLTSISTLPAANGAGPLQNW

Sprague-Dawley rats = assay: Locomotor activity and acute cocaine-induced hyperactivity; type: in vivo, rat; settings: 10 mg/kg alone, i.p. (data not shown)
OX1 = settings: cited from earlier work
[1] = administrated i.p.; cited from earlier work

| Compound | OX2/OX1 (human OX1 receptors) | Kb (human OX2 receptors) | also measured |
| --- | --- | --- | --- |
| CCCOc1ccc(CC2c3cc(OCCC)c(OC)cc3CCN2CC(=O)NCc2ccccc2)cc1OC (centres unmarked) [Compound 73, N-Benzyl-2-{6-methoxy-1-[(3-methoxy-4-propoxyphenyl)methyl]-7-propoxy-1,2,3,4-tetrahydroisoquinolin-2-yl}acetamide] | – | – | OX1 selectivity over the OX2 receptor (human OX1 receptors): > 620 fold; spontaneous activity (Sprague-Dawley rats): did not significantly alter the spontaneous activity |
| CCCCCCOc1ccc(CC2c3cc(OC)c(OC)cc3CCN2CC(=O)NCc2ccccc2)cc1OC (centres unmarked) [Compound 14, N-Benzyl-2-(1-{[4-(hexyloxy)-3-methoxyphenyl]methyl}-6,7-dimethoxy-1,2,3,4-tetrahydroisoquinolin-2-yl)acetamide] | >83 | > 10 µM | – |
| COc1ccc(CCC2c3cc(OC)c(OC)cc3CCN2CC(=O)NCc2ccccc2)cc1OC (centres unmarked) [Compound 60, N-Benzyl-2-{1-[2-(3,4-dimethoxyphenyl)ethyl]-6,7-dimethoxy-1,2,3,4-tetrahydroisoquinolin-2-yl}acetamide] | – | > 10 µM | – |
| COc1cc2c(cc1OC)C(Cc1cccc([N+](=O)[O-])c1)N(CC(=O)NCc1ccccc1)CC2 (centres unmarked) [Compound 42, N-Benzyl-2-{6,7-dimethoxy-1-[(3-nitrophenyl)methyl]-1,2,3,4-tetrahydroisoquinolin-2-yl}acetamide] | <0.12 | 1.2 ± 0.16 µM | – |
| COc1cc2c(cc1OC)C(Cc1ccc3ncccc3c1)N(CC(=O)NCc1ccccc1)CC2 (centres unmarked) [Compound 55, N-Benzyl-2-[6,7-dimethoxy-1-(quinolin-6-ylmethyl)-1,2,3,4-tetrahydroisoquinolin-2-yl]acetamide] | >23 | > 10 µM | – |
| COc1cc2c(cc1OC)C(C(C)c1ccccc1)N(CC(=O)NCc1ccccc1)CC2 (centres unmarked) [Compound 56, N-Benzyl-2-[6,7-dimethoxy-1-(1-phenylethyl)-1,2,3,4-tetrahydroisoquinolin-2-yl]acetamide] | – | > 10 µM | – |
| COc1ccc(CC2c3cc(OC)c(OC)cc3CCN2CC(=O)NCc2ccccc2)cc1NCc1ccccc1 (centres unmarked) [Compound 33, N-Benzyl-2-(1-{[3-(benzylamino)-4-methoxyphenyl]methyl}-6,7-dimethoxy-1,2,3,4-tetrahydroisoquinolin-2-yl)acetamide] | – | – | OX1 antagonist activity in words (human OX1 receptors; at concentrations up to 10 μM): no activity |
| COc1cc2c(cc1OC)C(Cc1ccc(OCc3ccccc3)c(OC)c1)N(CC(=O)NCc1ccccc1)CC2 (centres unmarked) [Compound 18, N-Benzyl-2-(1-{[4-(benzyloxy)-3-methoxyphenyl]methyl}-6,7-dimethoxy-1,2,3,4-tetrahydroisoquinolin-2-yl)acetamide] | – | – | decrease in OX1 potency compared to 11 (human OX1 receptors): 2 fold |
| CCCC(=O)Oc1ccc(CC2c3cc(OC)c(OC)cc3CCN2CC(=O)NCc2ccccc2)cc1OC (centres unmarked) [Compound 16, 4-({2-[(Benzylcarbamoyl)methyl]-6,7-dimethoxy-1,2,3,4-tetrahydroisoquinolin-1-yl}methyl)-2-methoxyphenyl butanoate] | 48 | 2.08 ± 0.6 µM | – |
| CCCCOc1ccc(CC2c3cc(OC)c(OC)cc3CCN2CC(=O)NCc2ccccc2)cc1OC (centres unmarked) [Compound 13, N-Benzyl-2-{1-[(4-butoxy-3-methoxyphenyl)methyl]-6,7-dimethoxy-1,2,3,4-tetrahydroisoquinolin-2-yl}acetamide] | 42 | 2 ± 0.86 µM | – |
| COc1cc2c(cc1OC)C(Cc1ccc(OS(=O)(=O)c3ccccc3)c(OC)c1)N(CC(=O)NCc1ccccc1)CC2 (centres unmarked) [Compound 23, 4-({2-[(Benzylcarbamoyl)methyl]-6,7-dimethoxy-1,2,3,4-tetrahydroisoquinolin-1-yl}methyl)-2-methoxyphenyl benzenesulfonate] | – | – | decrease in OX1 potency compared to 11 (human OX1 receptors): ~ 9 fold |
| COc1cc2c(cc1OC)C(Cc1ccc(OC)c(N(C)C)c1)N(CC(=O)NCc1ccccc1)CC2 (centres unmarked) [Compound 28, N-Benzyl-2-(1-{[3-(dimethylamino)-4-methoxyphenyl]methyl}-6,7-dimethoxy-1,2,3,4-tetrahydroisoquinolin-2-yl)acetamide] | 76.7 | 0.97 ± 0.35 µM | – |
| Cc1nc2ccc(NC(=O)Nc3ccnc4cccnc34)cc2o1 [SB-334867] | – | – | affinity for OX1 higher than for OX2 (OX1): ~ 50 fold; development of locomotor sensitization to cocaine [1]: block the development of locomotor sensitization to cocaine |
| COc1cc2c(cc1OC)C(Cc1cc(OC)c(OC)c(OC)c1)N(CC(=O)NCc1ccccc1)CC2 (centres unmarked) [Compound 52, N-Benzyl-2-{6,7-dimethoxy-1-[(3,4,5-trimethoxyphenyl)methyl]-1,2,3,4-tetrahydroisoquinolin-2-yl}acetamide] | – | > 10 µM | – |
| CCN(CC)c1cc(CC2c3cc(OC)c(OC)cc3CCN2CC(=O)NCc2ccccc2)ccc1OC (centres unmarked) [Compound 30, N-Benzyl-2-(1-{[3-(diethylamino)-4-methoxyphenyl]methyl}-6,7-dimethoxy-1,2,3,4-tetrahydroisoquinolin-2-yl)acetamide] | >48 | > 10 µM | – |
| COc1cc2c(cc1OC)C(Cc1ccc(OC)c([N+](=O)[O-])c1)N(CC(=O)NCc1ccccc1)CC2 (centres unmarked) [Compound 26, N-Benzyl-2-{6,7-dimethoxy-1-[(4-methoxy-3-nitrophenyl)methyl]-1,2,3,4-tetrahydroisoquinolin-2-yl}acetamide] | – | – | decrease in OX1 potency compared to 11 (human OX1 receptors): ~ 7 fold |
| COc1cc2c(cc1OC)C(Cc1cccc(N(C)C)c1)N(CC(=O)NCc1ccccc1)CC2 (centres unmarked) [Compound 44, N-Benzyl-2-(1-{[3-(dimethylamino)phenyl]methyl}-6,7-dimethoxy-1,2,3,4-tetrahydroisoquinolin-2-yl)acetamide] | 8.8 | 0.66 ± 0.16 µM | – |

Now from value to molecule, other results behind:

| OX2/OX1 (human OX1 receptors) | Kb (human OX2 receptors) | Compound | also measured |
| --- | --- | --- | --- |
| >32 | > 10 µM | CCNc1cc(CC2c3cc(OC)c(OC)cc3CCN2CC(=O)NCc2ccccc2)ccc1OC (centres unmarked) [Compound 29, N-Benzyl-2-(1-{[3-(ethylamino)-4-methoxyphenyl]methyl}-6,7-dimethoxy-1,2,3,4-tetrahydroisoquinolin-2-yl)acetamide] | – |
| >118 | > 10 µM | COc1cc2c(cc1OC)C(Cc1ccc(C(C)C)cc1)N(CC(=O)NCc1ccccc1)CC2 (centres unmarked) [Compound 51, N-Benzyl-2-(6,7-dimethoxy-1-{[4-(propan-2-yl)phenyl]methyl}-1,2,3,4-tetrahydroisoquinolin-2-yl)acetamide] | – |
| >24 | > 10 µM | COc1cc(CC2c3cc(OC)c(OC)cc3CCN2CC(=O)NCc2ccccc2)ccc1O (centres unmarked) [Compound 12, N-Benzyl-2-{1-[(4-hydroxy-3-methoxyphenyl)methyl]-6,7-dimethoxy-1,2,3,4-tetrahydroisoquinolin-2-yl}acetamide] | – |
| >27 | > 10 µM | CCCOc1ccc(CC2c3cc(OC)c(OC)cc3CCN2CC(=O)NCc2ccccc2)cc1 (centres unmarked) [Compound 45, N-Benzyl-2-{6,7-dimethoxy-1-[(4-propoxyphenyl)methyl]-1,2,3,4-tetrahydroisoquinolin-2-yl}acetamide] | – |
| >6.8 | > 10 µM | COc1cc2c(cc1OC)C(Cc1cccc(OC(C)C)c1)N(CC(=O)NCc1ccccc1)CC2 (centres unmarked) [Compound 41, N-Benzyl-2-(6,7-dimethoxy-1-{[3-(propan-2-yloxy)phenyl]methyl}-1,2,3,4-tetrahydroisoquinolin-2-yl)acetamide] | decrease in OX1 potency compared to 11 (human OX1 receptors): ~ 7 fold |
| – | > 10 µM | COc1cc2c(cc1OC)C(Cc1ccc(C)c(C)c1)N(CC(=O)NCc1ccccc1)CC2 (centres unmarked) [Compound 53, N-Benzyl-2-{1-[(3,4-dimethylphenyl)methyl]-6,7-dimethoxy-1,2,3,4-tetrahydroisoquinolin-2-yl}acetamide] | – |
| >20 | > 10 µM | COc1cc2c(cc1OC)C(Cc1ccc(OC(C)C)cc1)N(CC(=O)NCc1ccccc1)CC2 (centres unmarked) [Compound 46, N-Benzyl-2-(6,7-dimethoxy-1-{[4-(propan-2-yloxy)phenyl]methyl}-1,2,3,4-tetrahydroisoquinolin-2-yl)acetamide] | – |
| >11 | > 10 µM | CCCNc1cc(CC2c3cc(OC)c(OC)cc3CCN2CC(=O)NCc2ccccc2)ccc1OC (centres unmarked) [Compound 31, N-Benzyl-2-(6,7-dimethoxy-1-{[4-methoxy-3-(propylamino)phenyl]methyl}-1,2,3,4-tetrahydroisoquinolin-2-yl)acetamide] | – |
| >40 | > 10 µM | COc1cc2c(cc1OC)C(Cc1ccc(N(C)C)cc1)N(CC(=O)NCc1ccccc1)CC2 (centres unmarked) [Compound 48, N-Benzyl-2-(1-{[4-(dimethylamino)phenyl]methyl}-6,7-dimethoxy-1,2,3,4-tetrahydroisoquinolin-2-yl)acetamide] | – |
| 6.6 | 1.62 ± 0.23 µM | COc1cc2c(cc1OC)C(Cc1ccc3ccccc3c1)N(CC(=O)NCc1ccccc1)CC2 (centres unmarked) [Compound 54, N-Benzyl-2-[6,7-dimethoxy-1-(naphthalen-2-ylmethyl)-1,2,3,4-tetrahydroisoquinolin-2-yl]acetamide] | – |
